Experimental data reported in ChEMBL document CHEMBL1155729, “Hydrachine A, a novel alkaloid from the roots of Hydrangea chinensis” (J Nat Prod, 2001).
Active and inactive are the calls of the source. No cut-off for these calls is given here.

Experiments:
NUGC = test: Cytotoxicity against human NUGC cells; type: functional, cell-based
HONE1 = test: Cytotoxicity against human HONE1 cells; type: functional, cell-based

Structure (SMILES) | Activity (NUGC) | Activity (HONE1)
CC1(C)[C@@H](n2cnc3ccccc3c2=O)C(=O)C[C@@H]2[C@@H](O)CCCN21 | inactive | inactive
O=C(C[C@@H]1NCCC[C@H]1O)Cn1cnc2ccccc2c1=O | inactive | inactive
O=C1C[C@@H]2[C@@H](O)CCCN2[C@H](n2cnc3ccccc3c2=O)C1 | inactive | inactive
